Calls of active or inactive are those of the source.
Experiments:
[1] = target: T1, Voltage-dependent T-type calcium channel subunit alpha-1G (Homo sapiens, UniProt O43497); test: Inhibition of Cav3.1 channel (unknown origin) assessed as reduction in peak currents at 10 uM by whole cell patch-clamp method
[2] = target: T2, Voltage-dependent N-type calcium channel subunit alpha-1B (Homo sapiens, UniProt Q00975); test: Inhibition of Cav2.2 channel (unknown origin) assessed as reduction in peak currents by whole cell patch-clamp method
Target sequence in this assay (Q00975 whole entry): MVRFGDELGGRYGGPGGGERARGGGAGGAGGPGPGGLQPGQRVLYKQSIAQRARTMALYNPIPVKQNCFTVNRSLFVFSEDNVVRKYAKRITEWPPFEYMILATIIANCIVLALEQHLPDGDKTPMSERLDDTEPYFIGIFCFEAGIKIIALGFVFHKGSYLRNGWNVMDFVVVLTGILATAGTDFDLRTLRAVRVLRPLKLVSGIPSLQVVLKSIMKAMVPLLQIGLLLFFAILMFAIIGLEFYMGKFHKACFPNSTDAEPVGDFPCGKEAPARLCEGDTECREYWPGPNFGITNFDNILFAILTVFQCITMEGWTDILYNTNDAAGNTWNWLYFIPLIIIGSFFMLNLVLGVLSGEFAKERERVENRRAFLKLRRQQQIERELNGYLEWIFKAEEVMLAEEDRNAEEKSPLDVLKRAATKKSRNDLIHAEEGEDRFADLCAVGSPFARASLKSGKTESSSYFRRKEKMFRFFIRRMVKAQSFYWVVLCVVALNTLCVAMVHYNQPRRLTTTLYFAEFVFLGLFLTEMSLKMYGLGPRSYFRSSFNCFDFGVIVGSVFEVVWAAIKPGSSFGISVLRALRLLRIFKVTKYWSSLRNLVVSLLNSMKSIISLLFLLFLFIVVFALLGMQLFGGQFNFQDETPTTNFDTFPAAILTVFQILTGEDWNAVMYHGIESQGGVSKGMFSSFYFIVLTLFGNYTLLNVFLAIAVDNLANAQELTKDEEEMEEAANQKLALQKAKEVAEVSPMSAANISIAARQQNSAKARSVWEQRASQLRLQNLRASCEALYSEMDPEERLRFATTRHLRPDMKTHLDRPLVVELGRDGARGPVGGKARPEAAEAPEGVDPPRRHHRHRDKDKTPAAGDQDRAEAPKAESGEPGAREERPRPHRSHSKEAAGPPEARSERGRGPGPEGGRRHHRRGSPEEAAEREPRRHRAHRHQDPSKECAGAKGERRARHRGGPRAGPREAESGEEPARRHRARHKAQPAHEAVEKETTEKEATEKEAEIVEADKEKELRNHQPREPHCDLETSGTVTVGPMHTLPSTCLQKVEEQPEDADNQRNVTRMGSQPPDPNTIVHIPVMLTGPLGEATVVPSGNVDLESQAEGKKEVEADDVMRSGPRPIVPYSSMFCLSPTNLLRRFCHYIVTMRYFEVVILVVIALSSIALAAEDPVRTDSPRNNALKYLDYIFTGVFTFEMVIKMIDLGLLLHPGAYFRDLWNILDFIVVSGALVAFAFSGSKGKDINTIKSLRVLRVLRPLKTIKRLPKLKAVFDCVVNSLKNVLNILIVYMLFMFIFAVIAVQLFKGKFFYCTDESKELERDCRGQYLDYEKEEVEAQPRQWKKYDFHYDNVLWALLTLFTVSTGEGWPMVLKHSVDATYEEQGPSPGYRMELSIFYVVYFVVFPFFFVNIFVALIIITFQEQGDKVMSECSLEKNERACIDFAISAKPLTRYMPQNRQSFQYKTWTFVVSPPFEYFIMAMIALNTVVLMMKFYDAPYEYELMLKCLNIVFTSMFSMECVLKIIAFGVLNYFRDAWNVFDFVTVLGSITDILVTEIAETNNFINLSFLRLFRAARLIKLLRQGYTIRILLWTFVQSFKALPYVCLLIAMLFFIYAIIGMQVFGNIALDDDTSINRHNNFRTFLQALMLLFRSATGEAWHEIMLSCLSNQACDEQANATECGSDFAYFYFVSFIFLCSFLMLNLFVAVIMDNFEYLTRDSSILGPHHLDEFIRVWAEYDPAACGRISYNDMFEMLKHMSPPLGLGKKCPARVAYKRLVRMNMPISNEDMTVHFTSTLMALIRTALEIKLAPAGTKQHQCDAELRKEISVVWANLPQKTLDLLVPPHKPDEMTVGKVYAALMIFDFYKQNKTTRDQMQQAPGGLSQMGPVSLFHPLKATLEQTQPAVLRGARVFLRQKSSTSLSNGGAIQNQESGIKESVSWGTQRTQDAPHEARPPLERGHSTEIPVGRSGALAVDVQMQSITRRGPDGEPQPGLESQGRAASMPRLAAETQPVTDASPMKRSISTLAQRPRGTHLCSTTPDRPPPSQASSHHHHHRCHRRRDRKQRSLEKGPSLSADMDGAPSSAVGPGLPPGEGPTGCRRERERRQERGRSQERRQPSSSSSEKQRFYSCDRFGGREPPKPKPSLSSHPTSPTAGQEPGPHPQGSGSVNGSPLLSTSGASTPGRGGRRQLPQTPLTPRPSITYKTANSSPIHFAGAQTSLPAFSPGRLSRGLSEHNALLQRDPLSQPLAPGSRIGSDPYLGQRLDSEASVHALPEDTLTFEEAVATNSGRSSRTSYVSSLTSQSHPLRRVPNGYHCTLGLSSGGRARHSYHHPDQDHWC

[3] = target: T1, Voltage-dependent T-type calcium channel subunit alpha-1G; test: Inhibition of Cav3.1 channel (unknown origin) assessed as reduction in peak currents by whole cell patch-clamp method
[4] = target: T2, Voltage-dependent N-type calcium channel subunit alpha-1B; test: Inhibition of Cav2.2 channel (unknown origin) assessed as reduction in peak currents at 10 uM by whole cell patch-clamp method
Target sequence in this assay (Q00975 whole entry, looked up): as the sequence (Q00975 whole entry) above

Rattus norvegicus [5] = test: Analgesic activity in Sprague-Dawley rat model of spinal cord injury-induced neuropathic pain assessed as reduction in mechanical allodynia by measuring paw withdrawal threshold at 50 ug dosed intrathecally measured after 30 mins (reference value: 2.8 +/- 0.4 g); assay type: functional
Rattus norvegicus [6] = test: Analgesic activity in Sprague-Dawley rat model of spinal cord injury-induced neuropathic pain assessed as reduction in thermal hyperalgesia by measuring paw withdrawal latency time at 50 ug dosed intrathecally measured after 30 mins (reference value: […]); assay type: functional
Rattus norvegicus [7] = test: Analgesic activity in Sprague-Dawley rat model of spinal cord injury-induced neuropathic pain assessed as reduction in mechanical allodynia by measuring paw withdrawal threshold at 10 ug dosed intrathecally measured after 30 mins (reference value: 2.8 +/- 0.4 g); assay type: functional
Rattus norvegicus [8] = test: Analgesic activity in Sprague-Dawley rat model of spinal cord injury-induced neuropathic pain assessed as reduction in mechanical allodynia by measuring paw withdrawal threshold at 100 ug dosed intrathecally measured after 30 mins (reference value: 2.8 +/- 0.4 g); assay type: functional
Rattus norvegicus [9] = test: Analgesic activity in Sprague-Dawley rat model of spinal cord injury-induced neuropathic pain assessed as reduction in thermal hyperalgesia by measuring paw withdrawal latency time at 100 ug dosed intrathecally measured after 30 mins (reference value: […]); assay type: functional
Rattus norvegicus [10] = test: Analgesic activity in Sprague-Dawley rat model of spinal cord injury-induced neuropathic pain assessed as reduction in thermal hyperalgesia by measuring paw withdrawal latency time at 10 ug dosed intrathecally measured after 30 mins (reference value: […]); assay type: functional
Rattus norvegicus [11] = test: Effect on hind limb locomotion in Sprague-Dawley rat model of spinal cord injury-induced neuropathic pain assessed as Basso-Beattie-Bresnahan scores at 10 to 100 ug dosed via intrathecal route; assay type: ADME, organism-based, Hindlimb; conditions: in vivo, icv_or_intrathecal

T1 sequence (O43497 whole entry): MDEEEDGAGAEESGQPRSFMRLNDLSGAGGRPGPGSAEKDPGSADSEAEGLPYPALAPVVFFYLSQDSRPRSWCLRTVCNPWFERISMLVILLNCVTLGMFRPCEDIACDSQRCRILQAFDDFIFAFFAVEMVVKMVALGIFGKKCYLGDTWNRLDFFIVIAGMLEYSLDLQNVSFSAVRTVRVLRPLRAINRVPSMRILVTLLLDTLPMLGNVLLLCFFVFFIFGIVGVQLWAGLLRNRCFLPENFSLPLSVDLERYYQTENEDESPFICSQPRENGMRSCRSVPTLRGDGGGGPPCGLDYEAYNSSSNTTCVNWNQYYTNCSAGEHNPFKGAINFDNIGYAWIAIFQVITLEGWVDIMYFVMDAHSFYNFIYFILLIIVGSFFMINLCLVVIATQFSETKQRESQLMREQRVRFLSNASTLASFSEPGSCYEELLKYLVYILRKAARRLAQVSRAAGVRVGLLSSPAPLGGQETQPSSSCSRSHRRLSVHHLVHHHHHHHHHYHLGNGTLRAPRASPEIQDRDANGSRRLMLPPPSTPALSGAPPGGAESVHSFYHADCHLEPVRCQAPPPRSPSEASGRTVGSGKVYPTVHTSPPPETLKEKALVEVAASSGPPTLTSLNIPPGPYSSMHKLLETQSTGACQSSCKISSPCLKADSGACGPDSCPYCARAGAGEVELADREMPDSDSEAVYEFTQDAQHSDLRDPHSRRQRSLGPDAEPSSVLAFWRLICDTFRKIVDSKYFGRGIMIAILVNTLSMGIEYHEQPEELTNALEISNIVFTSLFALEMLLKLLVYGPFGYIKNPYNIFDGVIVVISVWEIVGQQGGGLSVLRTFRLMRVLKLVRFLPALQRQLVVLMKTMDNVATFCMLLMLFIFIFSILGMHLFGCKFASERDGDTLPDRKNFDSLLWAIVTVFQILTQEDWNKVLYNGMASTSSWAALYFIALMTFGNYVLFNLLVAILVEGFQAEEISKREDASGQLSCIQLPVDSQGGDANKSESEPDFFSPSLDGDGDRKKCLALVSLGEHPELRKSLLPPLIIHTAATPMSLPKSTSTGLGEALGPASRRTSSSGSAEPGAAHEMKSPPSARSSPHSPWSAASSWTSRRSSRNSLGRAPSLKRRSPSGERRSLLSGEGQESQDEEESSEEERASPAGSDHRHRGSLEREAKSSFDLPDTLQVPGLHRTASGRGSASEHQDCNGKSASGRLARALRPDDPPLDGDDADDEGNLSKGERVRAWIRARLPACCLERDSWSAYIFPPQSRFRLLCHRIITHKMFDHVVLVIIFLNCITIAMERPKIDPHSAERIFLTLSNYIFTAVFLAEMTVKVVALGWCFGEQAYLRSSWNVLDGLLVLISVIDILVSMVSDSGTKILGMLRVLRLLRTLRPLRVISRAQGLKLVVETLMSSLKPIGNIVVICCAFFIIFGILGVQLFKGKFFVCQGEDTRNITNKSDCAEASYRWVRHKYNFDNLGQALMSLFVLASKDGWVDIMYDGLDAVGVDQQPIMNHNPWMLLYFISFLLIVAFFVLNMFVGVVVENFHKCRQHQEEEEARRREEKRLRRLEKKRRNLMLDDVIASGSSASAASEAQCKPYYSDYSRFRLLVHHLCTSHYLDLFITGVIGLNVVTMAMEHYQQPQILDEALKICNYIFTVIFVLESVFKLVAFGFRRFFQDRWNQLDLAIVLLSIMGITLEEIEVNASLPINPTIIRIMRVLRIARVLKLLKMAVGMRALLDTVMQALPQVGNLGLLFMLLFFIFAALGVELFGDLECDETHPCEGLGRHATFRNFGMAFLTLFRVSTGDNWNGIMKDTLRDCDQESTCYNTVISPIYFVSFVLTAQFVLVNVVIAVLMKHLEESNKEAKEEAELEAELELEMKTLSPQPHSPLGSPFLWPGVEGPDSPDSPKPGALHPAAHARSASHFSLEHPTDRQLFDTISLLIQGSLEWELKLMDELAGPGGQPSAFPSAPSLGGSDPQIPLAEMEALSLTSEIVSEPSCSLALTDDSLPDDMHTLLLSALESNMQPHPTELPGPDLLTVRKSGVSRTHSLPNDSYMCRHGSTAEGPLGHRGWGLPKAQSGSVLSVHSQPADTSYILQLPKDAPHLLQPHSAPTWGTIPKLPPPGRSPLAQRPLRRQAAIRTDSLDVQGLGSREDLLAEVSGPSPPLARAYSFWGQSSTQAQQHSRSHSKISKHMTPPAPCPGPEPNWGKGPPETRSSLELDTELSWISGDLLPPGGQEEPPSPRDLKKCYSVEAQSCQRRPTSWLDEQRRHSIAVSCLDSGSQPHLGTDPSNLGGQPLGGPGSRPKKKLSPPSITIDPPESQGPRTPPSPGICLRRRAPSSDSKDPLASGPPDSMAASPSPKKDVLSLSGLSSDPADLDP

| inhibition [1] | IC50 [2] | IC50 [3] | inhibition [4] | SMILES | other results |
| --- | --- | --- | --- | --- | --- |
| 21.9% | – | – | – | COc1cc(CNCc2ccc(-c3ccncc3)cc2)cc(OC)c1OC | – |
| 25.2% | – | – | – | NC(=O)c1cccc(NCc2cc(-c3ccc(Cl)cc3)on2)c1 | – |
| 60.4% | 9.4 µM | 6.4 µM | 54.9% | COc1cc(CNCc2ccc(Oc3ccc(C#N)cc3)cc2)cc(OC)c1OC | – |
| 4.1% | – | – | – | NC(=O)c1cccc(NCc2ccc(N3CCOCC3)cc2)c1 | – |
| 53% | – | 7.4 µM | 21.6% | N#Cc1ccc(Oc2ccc(-c3ccc(CNc4cccc(C(N)=O)c4)o3)cc2)cc1 | Activity (Rattus norvegicus [5]): inactive; Activity (Rattus norvegicus [6]): inactive; Activity (Rattus norvegicus [7]): inactive; Activity (Rattus norvegicus [8]): inactive; Activity (Rattus norvegicus [9]): inactive; Activity (Rattus norvegicus [10]): inactive |
| 38.3% | – | – | – | COc1cc(CNCc2ccc(-c3cncnc3)cc2)cc(OC)c1OC | – |
| 77.6% | 5.9 µM | 2.4 µM | 70.6% | COc1ccc(-c2ccc(CNCc3cc(OC)c(OC)c(OC)c3)o2)cc1Cl | – |
| 86.6% | 6.7 µM | 2.5 µM | 81.6% | COc1cc(CNCc2ccc(-c3cccc(C(F)(F)F)c3)o2)cc(OC)c1OC | – |
| 41.6% | – | – | – | COc1ccc(-c2ccc(CNc3cccc(C(N)=O)c3)o2)cc1Cl | – |
| 91.3% | 4.3 µM | 1.9 µM | 80.2% | COc1cc(CNCc2ccc(-c3ccc(Cl)cc3)o2)cc(OC)c1OC | Activity (Rattus norvegicus [5]): 9.16 g; Time (Rattus norvegicus [6]): 8.3 s; Activity (Rattus norvegicus [7]): 2.6 g; Activity (Rattus norvegicus [8]): 11.1 g; Time (Rattus norvegicus [9]): 8.9 s; Time (Rattus norvegicus [10]): 5.8 s; Activity (Rattus norvegicus [11]): Non-toxic |
| 14.5% | – | – | – | NC(=O)c1cccc(NCc2ccc(-c3ccc(Cl)cc3)o2)c1 | – |
| 39.3% | – | – | – | NC(=O)c1cccc(NCc2ccc(-c3cccc(C(F)(F)F)c3)o2)c1 | – |
| 64.2% | 9.5 µM | 5.2 µM | 75.2% | COc1cc(CNCc2c[nH]c3ccc(Cl)cc23)cc(OC)c1OC | – |
| 39.9% | – | – | – | NC(=O)c1cccc(NCc2c[nH]c3ccc(Cl)cc23)c1 | – |
| 9.8% | – | – | – | COc1cc(CNCc2ccc(N3CCOCC3)cc2)cc(OC)c1OC | – |

Reference: ChEMBL document CHEMBL3612045, “3-Benzamides and 3,4,5-trimethoxyphenyl amines as calcium channel blockers” (Bioorg Med Chem, 2015)
